Measurements: US7579152B2, “SENP1 as a marker of cancer development and target for cancer therapy” (Board of Regents, the University of Texas System, priority 2004, dated 2009)

How the values were obtained:
SENP1 [1] = assay: SENP1 mRNA levels by quantitative real-time PCR in LNCaP cells after androgen/cytokine treatment; format: cell-based, human; details: for SENP1 expression enhanced (mRNA, QRT-PCR) / Increase in SENP1 levels: R1881 20 nM; for Increase in SENP1 levels: IL-6 25 ng/mL, or both; for SENP1 levels on cytokine treatment: 25 ng/mL, 24 or 48 hr
Procedure: (§1) LNCaP, PC-3, and DU145 cells were maintained in RPMI 1640 media containing 10% fetal bovine serum and 1% penicillin/streptomycin. The RWPE2 were maintained in Keratinocyte-Serum Free medium supplemented with 5 ng/ml human recombinant EGF and 0.05 mg/ml bovine pituitary extract. For hormone/cytokine treatment, the maintenance media was replaced with phenol red-free RPMI 1640 media containing 10% charcoal-stripped bovine serum and 1% penicillin/streptomycin.
(§2) Cells (LNCaP and/or PC-3) were prepared for RNA isolation using the RNA-Bee Reagent (Tel-Test Inc, Friendswood, Tex.) according to manufacture's instructions with stock samples diluted to the appropriate concentrations with the DEPC-treated water.
(§3) The TaqMan Master Mix Reagents (Applied Biosystems, Branchburg, N.J.) were utilized for the quantitative real-time PCR (QRT-PCR) reaction. Primers for either SENP1 ([…]; forward: SEQ. ID. NO. 5: 5′-TTGGCCAGAGTGCAAATGG-3′ and reverse: SEQ. ID. NO. 6 5′-[…]-3′) or the housekeeping 18S rRNA were utilized. SENP1 RNA levels were calculated using the TaqMan ABI PRISM 7900 Sequence Detector System (PE Applied Biosystems).

PSA = PSA ELISA assay, secreted PSA of LNCaP cells; format: cell-based, human; details: for Increase in PSA levels as compared to control: LNCaP, R1881 20 nM, IL-6 25 ng/mL, or both, 24 hr
Procedure: as §1
(§4) PC-3 and LNCaP cells were grown in 24-well plates. Cells were transfected with the oligos (40 pmol/well) or siRNA plasmid (200 ng) for one (for PC-3) or three times within 12 hour intervals (for LNcaP) using lipfectamine 2000 (Invitrogen). PSA ELISA or Luciferase assays were used for analysis.
For assessment of PSA, the PSA ELISA assay kit was purchased from MP Biomedicals (Orangeburg, N.Y.) and performed according to manufacturer's instruction. Using a microtiter plate reader, the ng/mL concentration of the cell samples was calculated from the standard curve.

SENP1 [2] = assay: SENP1 mRNA levels by quantitative real-time PCR in PC-3 cells after androgen/cytokine treatment; format: cell-based; details: 24 hr
Procedure: as §1, §2, §3

cyclin D1 promoter = assay: Cyclin D1 promoter CD1 (-1745/+134) luciferase reporter assay in PC-3 cells; format: cell-based; details: TSA for 12 hrs at 24 hr after transfection
Procedure: At 24 hr after transfection, cells were treated different dosage TSA as indicated for 12 hrs and then luciferase activity were determined. All luciferase activity was normalized to individually determined β-gal activity. […] After 48 hr of transfection, the Luciferase activity was measured. All luciferase activity was normalized to individually determined β-gal activity. […] All luciferase activity was normalized to individually determined β-gal activity.
EGFP-SENP1 and EGFP-SENP1mutant (C603A) were prepared by standard cloning and PCR based mutagenesis. CD1 (−1745/+134), CD1 (−963/+134), CD1 (−66/+134), and, CD1 (−66/+134) mutant-driven luciferase plasmids were prepared by PCR cloning strategy (Albanese et al., 1995; Tetsu et al., 1999). […]
To further confirm the role of SENP1 in cyclin D1 transcription, we performed a cyclin D1 promoter-driven luciferase reporter assay (FIG. 16A) as described by Cheng et al, 2004. CD1 (−1745/+134), which corresponded to the original fragment of cyclin D1 5′ sequence cloned from the PRAD1 breakpoint, was transfected into PC-3 cells and its response to SENP1 was measured.

AR = assay: ARE-luciferase reporter assay of AR-dependent transcription with co-transfected SENP1; format: cell-based; details: PC-3 cells, in the presence of bicalutamide
Procedure: as §4
Luciferase reporter gene assays were used to examine whether SENP1 could affect AR-dependent transcription. […] This effect was dependent on the presence of AR ligand, R1881. […] Even at very low levels of cotransfected DNA, SENP1 induced AR transactivation. […] As the antagonists of androgen can also bind to the AR, the inventors tested whether SENP1 could act on antagonist-bound AR. […] SENP1 and SENP1 mutant were expressed at similar levels (FIG. 9E) and SENP1 and SENP2 were also expressed similarly (FIG. 9F).

C[C@]1(O)CC[C@H]2[C@@H]3CCC4=CC(=O)CCC4=C3C=C[C@@]21C [R1881]
SENP1 levels with increasing R1881 concentration (SENP1 [1]; 24 hr): increasing R1881 concentration elevates SENP1 levels | SENP1 expression enhanced (mRNA, QRT-PCR) (SENP1 [1]; 24 hr): 5 fold | SENP1 expression enhanced (mRNA, QRT-PCR) (SENP1 [1]; 48 hr): 7 fold | Increase in SENP1 levels (SENP1 [1]; 24 hr): ~5 fold | Concentration of secreted PSA protein in the cultural medium (PSA; LNCaP cells, R1881): increased | Increase in PSA levels as compared to control (PSA): 5.6 fold | SENP1 expression on R1881 treatment (SENP1 [2]; R1881 30 nM): unaltered

CC(/C=C/C(=O)NO)=C\[C@@H](C)C(=O)c1ccc(N(C)C)cc1 [TSA]
SENP1 induction of cyclin D1 promoter activity (cyclin D1 promoter): decreased by TSA in a dose-dependent manner

CC(O)(CS(=O)(=O)c1ccc(F)cc1)C(=O)Nc1ccc(C#N)c(C(F)(F)F)c1 (centres unmarked) [bicalutamide]
Effect of SENP1 on AR-dependent transcription with antagonist-bound AR (AR): no effect

IL-6: cytokine that promotes activation of AR-dependent transcription via MAPK and JAK/STAT pathways
SENP1 levels on cytokine treatment (SENP1 [1]): enhanced | Increase in SENP1 levels (SENP1 [1]; 24 hr): ~5 fold | Increase in PSA levels as compared to control (PSA): 2.2 fold | SENP1 levels on cytokine treatment (SENP1 [2]; IL-6 25 ng/mL): unchanged

TNF-α
SENP1 levels on cytokine treatment (SENP1 [1]): not
